pIC50: −log10 of the molar value. Counter-ions that a name gives are not always drawn.

Chain of PRMT5 (O14744 whole entry): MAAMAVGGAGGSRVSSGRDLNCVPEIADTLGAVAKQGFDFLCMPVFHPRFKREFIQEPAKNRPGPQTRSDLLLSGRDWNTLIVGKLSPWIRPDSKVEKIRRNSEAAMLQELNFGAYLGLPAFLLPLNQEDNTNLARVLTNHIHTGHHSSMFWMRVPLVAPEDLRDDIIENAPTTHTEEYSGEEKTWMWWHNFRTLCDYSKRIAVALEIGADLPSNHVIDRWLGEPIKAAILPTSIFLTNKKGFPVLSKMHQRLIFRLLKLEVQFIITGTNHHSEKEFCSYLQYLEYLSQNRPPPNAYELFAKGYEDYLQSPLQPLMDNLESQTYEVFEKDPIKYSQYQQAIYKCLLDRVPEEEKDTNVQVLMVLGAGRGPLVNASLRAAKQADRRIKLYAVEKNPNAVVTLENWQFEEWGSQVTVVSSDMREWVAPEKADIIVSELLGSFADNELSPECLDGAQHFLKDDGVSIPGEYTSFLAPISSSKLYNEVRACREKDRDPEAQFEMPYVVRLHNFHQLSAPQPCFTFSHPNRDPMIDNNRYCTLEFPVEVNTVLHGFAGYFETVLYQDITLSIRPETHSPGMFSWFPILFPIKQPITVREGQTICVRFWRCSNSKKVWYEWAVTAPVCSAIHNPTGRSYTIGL
Chain of PRMT5 (Q9BQA1 whole entry partner): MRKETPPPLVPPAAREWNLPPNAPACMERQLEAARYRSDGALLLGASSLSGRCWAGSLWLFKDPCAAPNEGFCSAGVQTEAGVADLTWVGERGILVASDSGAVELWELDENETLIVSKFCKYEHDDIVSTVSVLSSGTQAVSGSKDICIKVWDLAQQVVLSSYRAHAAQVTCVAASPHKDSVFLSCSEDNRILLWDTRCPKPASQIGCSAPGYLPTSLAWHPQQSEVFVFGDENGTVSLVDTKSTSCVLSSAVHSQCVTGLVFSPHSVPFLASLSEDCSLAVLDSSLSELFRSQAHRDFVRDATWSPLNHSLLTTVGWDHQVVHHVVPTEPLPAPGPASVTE

One experiment concerns the target PRMT5 (Homo sapiens (Human), UniProt O14744). The experiment is described as follows: Inhibitory activity against PRMT5 enzyme by radioisotopic method. It is filed as biochemical. To be noted: PRMT5 5 nM, [3H]-SAM 0.3 μM, polypeptide substrate GL-27 100 nM, room temperature. The method in brief:
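PRMT5 (5 nM) preincubated with compound and [3H]-SAM (0.3 μM) 60 min at RT in Tris pH 8.0/Tween-20/DTT, 1% DMSO; biotinylated GL-27 peptide (100 nM) added, 120 min RT, stopped with cold SAM. Peptide captured on streptavidin FlashPlate, CPM counted; IC50 from four-parameter fit of % inhibition.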
For the compound `CC(=O)N1CCC(Nc2cc(C(=O)N3CC[C@@H](N4CCc5ccccc5C4)[C@H](O)C3)nc(OC(F)(F)F)n2)CC1` [Example 151, 1-(4-((6-((3R,4R)-4-(3,4-dihydroisoquinolin-2(1H)-yl)-3-hydroxypiperidine-1-carbonyl)-2-(trifluoromethoxy)pyrimidin-4-yl)amino)piperidin-1-yl)ethan-1-one], the pIC50 (as a rule, the negative decadic logarithm of the IC50, by convention in mol/L) is more than 7.00.
Still for that read-out and setting: next, `C=Cc1nc(NC2CCN(C(C)=O)CC2)cc(C(=O)N2CC[C@@H](N3CCc4ccccc4C3)[C@H](O)C2)n1` [Example 152, 1-(4-((6-((3R,4R)-4-(3,4-dihydroisoquinolin-2(1H)-yl)-3-hydroxypiperidine-1-carbonyl)-2-vinylpyrimidin-4-yl)amino)piperidin-1-yl)ethan-1-one]: more than 7.00.
For the compound `CC(=O)N1CCC(Nc2cc(C(=O)N3CC[C@@H](N4CCc5ccccc5C4)[C@H](O)C3)nc(-c3ccc(C)s3)n2)CC1` [Example 153, 1-(4-((6-((3R,4R)-4-(3,4-dihydroisoquinolin-2(1H)-yl)-3-hydroxypiperidine-1-carbonyl)-2-(5-methylthiophen-2-yl)pyrimidin-4-yl)amino)piperidin-1-yl)ethan-1-one], the pIC50 is more than 7.00.
On the same count and under the same terms, then `CC(=O)N1CCC(Nc2cc(C(=O)N3CC[C@@H](N4CCc5ccccc5C4)[C@H](O)C3)nc(OC3CCC(F)(F)CC3)n2)CC1` [Example 154, 1-(4-((2-((4,4-difluorocyclohexyl)oxy)-6-((3R,4R)-4-(3,4-dihydroisoquinolin-2(1H)-yl)-3-hydroxypiperidine-1-carbonyl)pyrimidin-4-yl)amino)-piperidin-1-yl)ethan-1-one], with more than 7.00; and `CC(=O)N1CCC(Nc2cc(C(=O)N3CC[C@@H](N4CCc5ccccc5C4)[C@H](O)C3)nc(SC(C)C)n2)CC1` [Example 155, 1-(4-((6-((3R,4R)-4-(3,4-dihydroisoquinolin-2(1H)-yl)-3-hydroxy-piperidine-1-carbonyl)-2-(isopropylthio)pyrimidin-4-yl)amino)piperidin-1-yl)ethan-1-one hydrochloride], with more than 7.00; and `CCC(CC)Oc1nc(NC2CCN(C(=O)C3CC(F)(F)C3)CC2)cc(C(=O)N2CC[C@@H](N3CCc4ccccc4C3)[C@H](O)C2)n1` [Example 156, (6-((1-(3,3-difluorocyclobutane-1-carbonyl)piperidin-4-yl)amino)-2-(pentan-3-oxy)pyrimidin-4-yl)((3R,4R)-4-(3,4-dihydroisoquinolin-2(1H)-yl)-3-hydroxy-piperidin-1-yl)ketone], with more than 7.00.
Still for that read-out and setting: next, `CC(=O)N1CCC(Nc2cc(C(=O)N3CC[C@@H](N4CCc5ccccc5C4)[C@H](O)C3)nc([S+]([O-])C(C)C)n2)CC1` (stereo partly drawn) [Example 157, 1-(4-((6-((3R,4R)-4-(3,4-dihydroisoquinolin-2(1H)-yl)-3-hydroxypiperidine-1-carbonyl)-2-(isopropylsulfinyl)pyrimidin-4-yl)amino)piperidin-1-yl)ethan-1-one]: more than 7.00.

In the next experiment the test system is Xenograft models of small cell lung cancer (SCLC), non-small cell lung cancer (NSCLC), acute myeloid leukemia (AML) and non-Hodgkin's lymphoma.
Assay: not given
The settings on record: cited from earlier work.
Take `Nc1nc2cc(CC[C@H]3C[C@@H](n4ccc5c(N)ncnc54)[C@H](O)[C@@H]3O)ccc2cc1Br` [JNJ-64619178]: the tumor growth inhibited result is recorded as “up to 99%”.
